{"source": "patent US20170312253A1", "about": "(The Third Affiliated Hospital, Third Military Medical …, priority 2014, published 2017)", "key": {"[1]": {"system": "Aβ deposition in the blood vessels of the brain", "assay": "Cerebrovascular amyloidosis detection (double immunofluorescence 1a4/6E10)", "format": "in vivo", "conditions": "AD mice", "experimental": "(§1) APPswe/PS1DE9 (AD) transgenic mice were purchased from Jackson Laboratory, USA (No. 005864), raised in the SPF grade animal house of The Third Affiliated Hospital of The Third Military Medical University. All the processes and correlated experiments applied to the mice were approved and filed with the Animal Ethics Committee of the Third Military Medical University. […] Alternatively, the daily dose for the prophylactic group may be 6.4 mg/kg, and the daily dose for the treatment group may be 12.8 mg/kg. Administration from 3-month old to 9-month old is the prophylactic test, and administration from 9-month old to 12-month old is the therapeutic test After reaching a stated time, the mice in each group received behavioral tests according to the method in the follows. Three mice in each group were taken for Golgi staining. The remaining mice were overly anaesthetized to receive brain anatomy. One side of the cerebral hemisphere was frozen and then for a biochemical analysis, and the other side of the cerebral hemisphere was fixed with 4% paraform for a histological analysis.\nA new assessment method was applied in the present research to assess the severity of the cerebrovascular amyloidosis. The blood vessels in the brain were double immunofluorescence stained with α-smooth muscle action antibody (1a4) and Aβ antibody (6E10), observed under eonfocal laser microscopy (Radiance 2000MP, Bio-Rad), and the images of the blood vessels were recorded. The severity of the CAA of each blood vessel was scored based on the following four-level scale: level 0: no Aβ deposition; level 1: little Aβ deposition, Aβ deposition occupies less than one third of the perimeter of the blood vessel; level 2: moderate Aβ deposition, Aβ deposition occupies more than one third but less than two thirds of the perimeter of the blood vessel; level 3: severe deposition, Aβ deposition occupies more than […] of the perimeter of the blood vessel."}, "NEP": {"system": "NEP", "assay": "Western blot of Aβ metabolizing enzymes in brain: NEP", "format": "in vivo", "conditions": "AD mice brain", "experimental": "(§2) APPswe/PS1DE9 (AD) transgenic mice were purchased from Jackson Laboratory, USA (No. 005864), raised in the SPF grade animal house of The Third Affiliated Hospital of The Third Military Medical University. All the processes and correlated experiments applied to the mice were approved and filed with the Animal Ethics Committee of the Third Military Medical University. […] Alternatively, the daily dose for the prophylactic group may be 6.4 mg/kg, and the daily dose for the treatment group may be 12.8 mg/kg. […]\n(§3) The enzymes related with Aβ formation and degradation their molecule levels, the levels of hyperphosphprylated Tau proteins, and the levels of synaptic plasticity correlated proteins were all detected with Western blot. […] The blotting was detected with the following antibodies: APP C terminal antibody (171610, Millipore), BACE1 antibody (Millipore), Aβ antibody (6E10, Abcam), Nepriiysin antibody (Millipore), RAGE antibody (Millipore), LRP antibody (5A6, Calbiochem), IDE antibody (epitomics), phosphorylated Tau protein antibody, including pS396 (Signalway), pT231 (Signalway), pS199 (epitomics), pS262 (Abcam), SNAP25 antibody (Millipore), Synaptophysin antibody (Millipore), Synapsin I antibody (Millipore), VAMP1 antibody (Millipore), PSD95 antibody (Millipore), F-actin antibody (Actin) (Sigma-Aldrich). […]"}, "microglia": {"system": "microglia", "assay": "Microglia reaction immunostaining (CD45)", "format": "in vivo", "conditions": "AD mice", "experimental": "as §1\nImmunohistochemistry in the method of bleach section was carried out according to the previous steps. The primary antibodies were rabbit-anti-mouse CD45 antibody (for labelling microglias), rabbit-anti-mouse GFAP (for labelling astrocytes) and rabbit-anti-mouse pSer396-Tau antibody, respectively. […]"}, "[2]": {"system": "cerebral ischemia-reperfusion injury", "conditions": "cited from earlier work"}, "neurons": {"system": "neurons", "assay": "Neuron apoptosis in the brain of AD mice", "format": "in vivo", "experimental": "as §1"}, "IDE": {"system": "IDE", "assay": "Western blot of Aβ metabolizing enzymes in brain: IDE", "format": "in vivo", "conditions": "AD mice brain", "experimental": "as §2, §3"}}, "data": [{"smiles": "CC1=NN(c2ccccc2)C(=O)C1", "note": "[Edaravone, 3-methyl-1-phenyl-2-pyrazolin-5-one]", "values": [{"measurement": "proportions of the blood vessels at level 0 and level 1 CAA", "setting": "[1]", "result": "significantly increased"}, {"measurement": "proportions of the blood vessels at level 2 and level 3 CAA", "setting": "[1]", "result": "significantly reduced"}, {"measurement": "Aβ deposition in the blood vessels of the brain", "setting": "[1]; Edaravone treatment group", "result": "significantly reduced"}, {"measurement": "influence on NEP", "setting": "NEP", "result": "no influence"}, {"measurement": "microglia reaction level in the brain", "setting": "microglia; p.o.", "result": "significantly reduced, too"}, {"measurement": "microglia reaction in the brain", "setting": "microglia; prophylactic and therapeutic test", "result": "all reduced significantly"}, {"measurement": "cerebral ischemia-reperfusion injury area", "setting": "[2]; previous studies", "result": "reduce cerebral ischemia-reperfusion injury area"}, {"measurement": "gene expression of the Fas/FasL signaling pathway", "setting": "[2]; transient focal ischemia in rats", "result": "suppress the gene expression of the Fas/FasL signaling pathway"}, {"measurement": "neuron apoptosis in the brain", "setting": "neurons", "result": "significantly reduce the neuron apoptosis"}, {"measurement": "influence on IDE", "setting": "IDE", "result": "no influence"}]}]}
